Data taken from paper PMC12447755, “β-Lactamase cleavable antimicrobial peptide–drug conjugates” (Chemical Science, 2025).
Values after ≈ are worked out from the molar mass of the structure shown. Where a SMILES comes first, the peptide text is derived from it.

Experiments:
[1] = test system: Pseudomonas aeruginosa strain PAO1; assay: Initial susceptibility testing at a fixed concentration; type: cell-based; parameters: key: Tick (✓) represents OD600 comparable to no-growth control; cross (✗) represents OD600 comparable to growth control without any peptide; conditions: 256 μg mL−1 of peptide, overnight incubation, OD600 compared with growth and no-growth controls
[2] = test system: P. aeruginosa strain PAO1; conditions: PAO1, 16 h
[3] = test system: P. aeruginosa strain PA14; conditions: PA14, 16 h
[4] = test system: P. aeruginosa

C[C@@H]1NC(=O)[C@H](Cc2c[nH]c3ccccc23)NC(=O)[C@H](CCCCN)NC(=O)[C@@H](NC(=O)[C@@H](N)Cc2ccccc2)CSCCc2cc(nc(NCCCc3ccccc3)n2)CCSC[C@@H](C(=O)N[C@@H](CCCCN)C(=O)N[C@@H](CCCCN)C(N)=O)NC(=O)[C@H](Cc2c[nH]c3ccccc23)NC(=O)[C@H](CCCCN)NC(=O)[C@H](Cc2ccccc2)NC1=O [P2-1] (HELM PEPTIDE1{F.C.K.W.A.F.K.W.C.K.K.[am]}|CHEM1{[c1ccc(CCCNc2nc(CC[*:1])cc(CC[*:2])n2)cc1]}$PEPTIDE1,CHEM1,2:R3-1:R1|PEPTIDE1,CHEM1,9:R3-1:R2$$$V2.0)
Inh (inhibition) [1]: ✓ | MIC PAO1 [2]: 16 µg/mL (≈ 9.2 µM) | MIC PA14 [3]: 16 µg/mL (≈ 9.2 µM) | MIC of peptide-staple combinations (heat map) [4]: best activity | MIC ([4]; 18 h): 8 to 16 µg/mL

CC[C@H](C)[C@H](NC(=O)[C@H](CCCCN)NC(=O)[C@H](CCCCN)NC(=O)[C@@H]1CSCCc2cc(nc(NCCCc3ccccc3)n2)CCSC[C@H](NC(=O)[C@H](CC(C)C)NC(=O)[C@H](CCCNC(=N)N)NC(=O)[C@H](CCCNC(=N)N)NC(=O)[C@H](Cc2ccccc2)NC(=O)[C@@H](N)CCCNC(=N)N)C(=O)N[C@@H](CCCCN)C(=O)N[C@@H](CCCCN)C(=O)N[C@@H](Cc2c[nH]c3ccccc23)C(=O)N[C@@H](CCCNC(=N)N)C(=O)N[C@@H](CCCCN)C(=O)N[C@@H](CCCNC(=N)N)C(=O)N1)C(N)=O [P4-1] (HELM PEPTIDE1{R.F.R.R.L.C.K.K.W.R.K.R.C.K.K.I.[am]}|CHEM1{[c1ccc(CCCNc2nc(CC[*:1])cc(CC[*:2])n2)cc1]}$PEPTIDE1,CHEM1,6:R3-1:R1|PEPTIDE1,CHEM1,13:R3-1:R2$$$V2.0)
Inh (inhibition) [1]: ✓

C[C@H](NC(=O)[C@H](Cc1c[nH]c2ccccc12)NC(=O)[C@H](CCCCN)NC(=O)[C@H](CS)NC(=O)[C@@H](N)Cc1ccccc1)C(=O)N[C@@H](Cc1ccccc1)C(=O)N[C@@H](CCCCN)C(=O)N[C@@H](Cc1c[nH]c2ccccc12)C(=O)N[C@@H](CS)C(=O)N[C@@H](CCCCN)C(=O)N[C@@H](CCCCN)C(N)=O [P2] (H-FCKWAFKWCKK-NH2)
Inh (inhibition) [1]: ✗ | MIC PAO1 [2]: 32 µg/mL (≈ 21.7 µM) | MIC PA14 [3]: 32 µg/mL (≈ 21.7 µM)

CC(C)C[C@H](NC(=O)[C@H](Cc1c[nH]cn1)NC(=O)[C@H](CCCCN)NC(=O)[C@H](CS)NC(=O)[C@H](Cc1ccc(O)cc1)NC(=O)[C@H](CC(N)=O)NC(=O)[C@H](CCC(N)=O)NC(=O)[C@@H](NC(=O)[C@H](Cc1c[nH]c2ccccc12)NC(=O)[C@@H](N)CCCCN)C(C)C)C(=O)NCC(=O)N[C@@H](CCCNC(=N)N)C(=O)N[C@@H](CCCCN)C(=O)N[C@@H](CS)C(=O)N[C@@H](Cc1c[nH]cn1)C(=O)N[C@H](C(=O)N[C@@H](CC(C)C)C(=O)N[C@@H](CCCCN)C(=O)N[C@H](C(N)=O)[C@@H](C)O)[C@@H](C)O [P6] (H-KWVQNYCKHLGRKCHTLKT-NH2)
Inh (inhibition) [1]: ✗
